The record followed here is ChEMBL document CHEMBL1155772, “Peroxide bond-dependent antiplasmodial specificity of artemisinin and OZ277 (RBx11160)” (Antimicrob Agents Chemother, 2007).

Values after ≈ are worked out from the molar mass of the structure shown. Active and inactive are the calls of the source. The calls are words filed in the database; no cut-off is given here. Bounds are passed on as bounds.

The test system of one test is Neospora caninum. The test can be described thus: Antimicrobial activity against Neospora caninum up to 1 ug/ml. It is filed as functional, organism-based.
The subject of test [1] is Plasmodium falciparum. The test can be described thus: Antiplasmodial activity against Plasmodium falciparum K1. It is filed as functional, organism-based.
In test [2] the test system is Plasmodium falciparum. The test can be described thus: Antiplasmodial activity against Plasmodium falciparum NF54. The format is functional, organism-based.
For test [3], the system named is Trypanosoma brucei rhodesiense. The test can be described thus: Antitrypanosomal activity against Trypanosoma brucei rhodesiense STIB900. The format is functional, organism-based.
The test system of the next test is Trypanosoma cruzi. Kind of test: Antitrypanosomal activity against Trypanosoma cruzi Tulahuen C4. The format is functional, organism-based.
Test [4] has as its system Leishmania donovani. Kind of test: Antileishmanial activity against Leishmania donovani MHOM-ET-67/L82 amastigotes by axenic assay. The format is functional, organism-based.
Test [5] concerns Giardia intestinalis. Kind of test: Antimicrobial activity against Giardia duodenalis WB. The format is functional, organism-based.
Test [6] relates to Giardia intestinalis. The test can be described thus: Antimicrobial activity against Giardia duodenalis G1. It is filed as functional, organism-based.
Test [7] concerns Babesia divergens. The test can be described thus: Antimicrobial activity against Babesia divergens 1903B. It is filed as functional, organism-based.
In test [8] the test system is Babesia divergens. The test can be described thus: Antimicrobial activity against Babesia divergens 4201. It is filed as functional, organism-based.
The next test relates to Leishmania major. Kind of test: Antileishmanial activity against Leishmania major amastigotes. The format is functional, organism-based.
In test [9] the test system is Leishmania donovani. The test can be described thus: Antileishmanial activity against Leishmania donovani promastigotes. It is filed as functional, organism-based.
For the next test, the system named is Toxoplasma gondii. The test can be described thus: Antimicrobial activity against Toxoplasma gondii in normal human foreskin fibroblasts. The format is functional, organism-based.
The next test deals with Pneumocystis carinii. Kind of test: Antimicrobial activity against Pneumocystis carinii at 0.14 ug/ml in feeder layer cells. It is filed as functional.
A short description of test [10]: Inhibition of Plasmodium falciparum ATP6.

As for `CC(C)(N)CNC(=O)CC1CC[C@]2(CC1)OC[C@]1(O2)C2CC3CC(C2)CC1C3` (stereo partly specified), the outcome in the test with Neospora caninum was inactive. The IC50 in the test on Plasmodium falciparum [1] was 2.5 µg/mL (≈ 6.4 µM); in the test on Plasmodium falciparum [2] it was 4.9 µg/mL (≈ 12.5 µM); in [3] it was 0.77 µg/mL (≈ 1.97 µM); with Trypanosoma cruzi, 13 µg/mL (≈ 33.3 µM); in the test with Leishmania donovani [4], 20 µg/mL (≈ 51.2 µM); with Giardia intestinalis [5] it was 38 µg/mL (≈ 97.3 µM). Further, the IC50 in the test with Giardia intestinalis [6] came to 18 µg/mL (≈ 46.1 µM); with Babesia divergens [7], 6.7 µg/mL (≈ 17.2 µM); in the test on Babesia divergens [8] it was 7.5 µg/mL (≈ 19.2 µM).
With `C[C@@H]1CC[C@H]2[C@@H](C)C(=O)O[C@@H]3O[C@@]4(C)CC[C@@H]1[C@]32OO4` [ARTEMISININ], the result in the test with Neospora caninum was inactive. In addition, the IC50 in the test on Plasmodium falciparum [1] was 0.002 µg/mL (≈ 0.00708 µM); in the test on Plasmodium falciparum [2], 0.004 µg/mL (≈ 0.0142 µM); in [3] it was 25 µg/mL (≈ 88.5 µM); with Trypanosoma cruzi, greater than 30 µg/mL; with Leishmania donovani [4], 8.8 µg/mL (≈ 31.2 µM); in the test on Giardia intestinalis [5], 65 µg/mL (≈ 230 µM). The concentration for half-maximal inhibition (IC50) in the test with Giardia intestinalis [6] was 49 µg/mL (≈ 174 µM); with Babesia divergens [7] it was greater than 10 µg/mL; in the test with Babesia divergens [8], greater than 10 µg/mL; in the test on Leishmania major it was 8 µg/mL (≈ 28.3 µM); in the test on Leishmania donovani [9] it was 8 µg/mL (≈ 28.3 µM); in the test on Toxoplasma gondii it was 2.3 µg/mL (≈ 8.15 µM). Also, the midpoint of inhibition in test [10], the IC50, lay at 0.079 µM. Besides, the inhibition at 0.14 µg/mL with Pneumocystis carinii was determined as 55%.
Take `CCCCCCCCCCCCCCCCOP(=O)([O-])OCC[N+](C)(C)C` [MILTEFOSINE]: in the test with Leishmania donovani [4], half-maximal inhibition (IC50) required 0.2 µg/mL (≈ 0.491 µM).
With `O=C(Cn1ccnc1[N+](=O)[O-])NCc1ccccc1` [BENZNIDAZOLE], it took 0.14 µg/mL (≈ 0.538 µM) to reach half-maximal inhibition in the test on Trypanosoma cruzi (IC50).
As to `O=C1C(O)=C([C@H]2CC[C@H](c3ccc(Cl)cc3)CC2)C(=O)c2ccccc21` [ATOVAQUONE], the results for the IC50 in the test on Babesia divergens [7] and with Babesia divergens [8] were 0.0091 µg/mL (≈ 0.0248 µM) and 0.0087 µg/mL (≈ 0.0237 µM), respectively.
As to `CCCSc1ccc2[nH]c(NC(=O)OC)nc2c1` [ALBENDAZOLE], the results for the half-maximal inhibitory concentration (IC50) with Giardia intestinalis [5] and in the test with Giardia intestinalis [6] were 0.019 µg/mL (≈ 0.0716 µM) and 0.018 µg/mL (≈ 0.0678 µM), respectively.
Regarding `C[C@@H]1CC[C@H]2[C@@H](C)C(=O)O[C@@H]3O[C@@]4(C)CC[C@@H]1[C@]32O4` [DEOXYARTEMISININ], the result in the test on Neospora caninum was inactive. For the same compound, the half-inhibitory concentration (IC50) in the test with Plasmodium falciparum [1] is greater than 10 µg/mL; in the test on Plasmodium falciparum [2], greater than 10 µg/mL; in test [3] it was 34 µg/mL (≈ 128 µM); in the test on Trypanosoma cruzi, greater than 30 µg/mL; in the test on Leishmania donovani [4], greater than 30 µg/mL; in the test on Giardia intestinalis [5], 91 µg/mL (≈ 342 µM). In addition, the IC50 in the test with Giardia intestinalis [6] is 28 µg/mL (≈ 105 µM); with Babesia divergens [7] it was greater than 10 µg/mL; in the test with Babesia divergens [8], greater than 10 µg/mL.
Regarding `CC(C)(N)CNC(=O)C[C@H]1CC[C@]2(CC1)OO[C@]1(O2)C2CC3CC(C2)CC1C3` [OZ277], the outcome with Neospora caninum was inactive. Besides, the IC50 in the test on Plasmodium falciparum [2] was 0.00091 µg/mL (≈ 0.00232 µM); in test [3], 0.56 µg/mL (≈ 1.43 µM); with Trypanosoma cruzi, 9.5 µg/mL (≈ 24.2 µM); in the test on Leishmania donovani [4], 24 µg/mL (≈ 61.1 µM); in the test on Giardia intestinalis [5], 41 µg/mL (≈ 104 µM); in the test on Giardia intestinalis [6], 49 µg/mL (≈ 125 µM). Moreover, the IC50 is greater than 10 µg/mL in the test on Babesia divergens [7], greater than 10 µg/mL with Babesia divergens [8] and 7.7 µM in [10].
